# Patent US20120121691A1, “Method for Increasing the Production of a Specific ACYL-Chain Dihydroceramide(s) for Improving the Effectiveness of Cancer Treatments” (priority 2010, published 2012)
# Entries after “also recorded” stand apart in the source; their conditions may differ.
# Columns and labels:
# [1] = test system: NCI-H146 small cell lung cancer cells; test: DIMSCAN cytotoxicity assay, NCI-H146; assay type: cell-based, human; settings: NCI-H146, fatty acid 5 micromolar
# Description: (§1) Cell culture. The pre-T acute lymphoblastic leukemia cell lines MOLT-4 and CCRF-CEM, small cell lung cancer cell line NCI-H146, non-small cell lung cancer cell line NCI-H1792, colon cancer cell lines LoVo and HT-29, and breast cancer cell line MCF-7, were purchased from American Type Culture Collection, Manassas, Va., and grown at 20%/5% and 5%/5%, respectively. COG-LL-317 and COG-LL-332 pre-T acute lymphoblastic leukemia cell lines were obtained from the TTUHSC Cancer Center Cell Repository and grown at 5%/5%. Cell line identities were verified by short tandem repeat analysis and mycoplasma testing was performed. Cell lines were maintained in RPMI-1640 medium supplemented with 10% fetal bovine serum (FBS, Invitrogen) in humidified, 37° C. incubators. For all experiments, ALL cell lines were seeded at 2. cells/mL in RPMI-1640 medium supplemented with 15% fetal bovine serum. Solid tumor cell lines were plated at 5×cells/mL in RPMI-1640 medium supplemented with 10% fetal bovine serum.
# (§2) Cytotoxicity Assay. Cytoxicity is determined using the DIMSCAN assay system (R. Proffitt et al., Cytometry 24, 204-213 (1996); T. Frgala et al., Proc. AACR, 36, 303 (1995). The system employs digital imaging microscopy to quantify viable cells, which selectively accumulate fluorescein diacetate to become brightly fluorescent. The system is capable of measuring cytotoxicity over a 4-5 log dynamic range by quenching the residual fluorescence of dead and dying cells with eosin Y and quantifying the total fluorescence of viable cells using digital thresholding. Measured fluorescence is directly proportionate to the number of viable cells.
# In brief, 5,000 to 25,000 cells/well depending on the cell line (5,000 for solid tumor, 25,000 for ALL cell lines) were replicate plated into 60 wells of a 96-well tissue culture plate in 0.1 cc media and allowed to attach or recover overnight. Drug(s) are then added in 0.05 cc media to the final concentrations indicated. […] Total fluorescence of viable cells is then measured by digital imaging microscopy and the signal normalized to control cells. […]
# [2] = test system: pre-T acute lymphoblastic leukemia cell lines CCRF-CEM, MOLT-4, COG-LL-317 and COG-LL-332; test: DIMSCAN cytotoxicity assay across the four pre-T ALL cell lines; assay type: cell-based, human; settings: COG-LL-317, COG-LL-332, CCRF-CEM, 4-HPR 0-9 μM, 48 hours
# Description: as §1, with “For all experiments, ALL cell lines were seeded at 2. cells/mL in RPMI-1640 medium supplemented with 15% fetal bovine serum. Solid tumor cell lines were plated at 5×cells/mL in RPMI-1640 medium supplemented with 10% fetal bovine serum.” left out
# as §2, with “cells. […]” for “cells.”
# [3] = test system: COG-LL-317; test: DIMSCAN cytotoxicity assay, COG-LL-317; assay type: cell-based; settings: COG-LL-317, sphinganine 1 μM, GT-11 0.5 μM, 48 hours
# Description: as §1
# as §2, with “cells. A comparison of the total fluorescence of a drug-treated cell population to the fluorescence of a similar number of untreated cells yields a survival fraction. […]” for “cells.”
# (§3) The addition of C22:0-fatty acid, but not C18:0 or C22:1 fatty acids, increased cytotoxicity (FIGS. 7A-7F). […] Cytotoxicity was measured using DIMSCAN, and data was normalized to control and plotted as survival fraction (y-axis). […]
# [4] = test system: COG-LL-332; test: DIMSCAN cytotoxicity assay, COG-LL-332; assay type: cell-based; settings: COG-LL-332, sphinganine 1 μM, GT-11 0.5 μM, 48 hours
# Description: as §1
# as §2, with “cells. A comparison of the total fluorescence of a drug-treated cell population to the fluorescence of a similar number of untreated cells yields a survival fraction. […]” for “cells.”
# as §3
# [5] = test system: reactive oxygen species; test: Reactive oxygen species generation; assay type: cell-based, human; settings: C22:0-fatty acid with sphinganine plus GT-11
Structure (SMILES),effect of fatty acid on fenretinide cytotoxicity [1],effect of fatty acid on fenretinide (4-HPR) cytotoxicity [2],effect of fatty acid co-treatment on cytotoxicity of sphinganine with GT-11 [3],effect of fatty acid co-treatment on cytotoxicity of sphinganine with GT-11 [4],increase of reactive oxygen species [5]
CCCCCCCCCCCCCCCCCCCCCC(=O)O [C22:0-fatty acid],increased fenretinide cytotoxicity,enhanced; also recorded: significantly increased cytotoxicity,increased,increased,not observed
CCCCCCCC/C=C\CCCCCCCCCCCC(=O)O [C22:1-fatty acid],–,–,not,not,–
